Consider 1 compound from patent US20140242012A1, “METHODS FOR TREATING UV-DAMAGED SKIN AND SCC TUMORS AND FOR REMOVING TATTOOS WITH TOPICAL INGENOL MEBUTATE” (LEO Laboratories Limited, priority 2011, published 2014).

Format in all cases: in vivo, SKH1/hr mice
One assay has as its system UVB-induced skin lesions. Kind of assay: Field treatment of ~10 cm2 UVB-damaged skin: development of UVB-induced lesions. From the text: Outbred SKH1/hr mice were irradiated 3 times per week for 10-11 weeks under 6×TL-12/40 W fluorescent tubes (Phillips, Amsterdam, The Netherlands) mounted in parallel. The lamps emit 54% UVB (280-315 nm) and 46% UVA (315-400 nm) (Rebel et al., 2001). During the irradiation mice were segregated into individual boxes (11.5×20 cm) with a piece of 0.125 mm cellulose acetate placed over the box to prevent any UVC reaching the mice. The mice were 26 cm below the UV lamps. Under these conditions the mice received 1.25 times the minimal erythemal dose (MED) of UVB at each exposure, with the total UVB dose being 37.5 MED. One MED was defined as the minimal UVB dose, which caused erythema-oedema evident by visual examination. […] Such cessation was usually only necessary after the initial 2-3 doses of UVB, as mice become resistant to UVB-induced erythema with repeated exposures.
One to three days after discontinuation of UVB irradiation, a ˜10 cm2 rectangular area located centrally on the dorsa and previously demarcated by a tattoo were treated topically, daily for 2 days with 100 μl of 0.05% ingenol mebutate gel or 100 μl of placebo gel. An untreated group served as an additional control. The mice were monitored weekly for the development of lesions both within and outside the treatment areas. […] The number and size of lesions was monitored over time. All visible lesions were counted. […]

The next assay concerns T7 tumours. The assay is described as follows: Challenge of ingenol mebutate cured mice with T7 cells. The settings on record: challenge 110 or 159 days after cure with 0.25% topical. The protocol:
To determine if cure of primary T7 tumours in inbred SKH1/hr mice would protect mice from subsequent challenge with the same tumour, T7 cells were injected s.c. in female SKH1/hr mice that had primary T7 tumours previously cured by topical treatment with 0.25% ingenol mebutate. There were 2 groups of mice, mice that had primary tumours cured by ingenol mebutate 110 (group 1) and 159 (group 2) days prior to challenge. Included in the study was a control group that had not previously received T7 or ingenol mebutate treatment. Tumour growth is monitored over time. Mice are culled when tumours reached 100 mm^2.
Mice are inoculated s.c. with 2×10^4 T7 cells 110 (Day 110) or 159 (Day 159) days post last treatment of primary tumour with ingenol mebutate. Tumour growth is monitored over time. Mice are sacrificed when tumour reached 100 mm^2. Survival curves are generated by assigning a death event when tumours reached 100 mm^2. Control mice had neither prior T7 nor ingenol mebutate treatment.

A further assay can be described thus: Tattoo studies. The settings on record: 50 μl topically daily for 2 days (Days 12 & 13), followed to Day 232, n=5. The protocol: Fifteen SKH1/hr mice are tattooed on their dorsa with an about 1 cm×about 1 cm cross using human grade blue tattoo ink (Tattoo supplies Australia, Catalogue number FFMB) on Day 0. Once the tattooed area heals (after 12 days), the tattoo (about 100 mm^2) is topically treated daily for 2 days with 50 μl of PEP005 gel or placebo gel (Day 12 & Day 13). Two PEP005 doses are tested: 0.1% and 0.25% (w/v). The mice are examined over time to assess any changes to the tattooed area and photographs are taken.
The aim study is to determine whether PEP005 gel can remove tattoo markings when applied topically. Fifteen mice are tattooed with a cross on their dorsa. Twelve days after the tattoos are drawn, they are treated topically daily for 2 days with 0.1% PEP005, 0.25% PEP005 or placebo gel. The photographs in FIG. 1 show the tattoo just prior to the first treatment (Day 12), 24 h after the first treatment (Day 13) and at different time points after the second treatment (from Day 14 onwards). […] One week after the second dose, an eschar encompassing the whole treatment area forms. This contracts over time and fully resolves after about 3 weeks (Day 32). […] Six to seven months after the PEP005 treatment is applied, the treated area heals, leaving skin with a slight pink tinge. […] There is no change in the placebo treated tattoos over this time frame. […]

For the compound `C/C=C(/C)C(=O)O[C@H]1C(C)=C[C@]23C(=O)[C@@H](C=C(CO)[C@@H](O)[C@]12O)[C@H]1[C@@H](C[C@H]3C)C1(C)C` [ingenol mebutate], the “growth of individual lesions vs control and placebo” value in the assay with UVB-induced skin lesions (lesions within the treatment areas) is “no significant difference”. Besides, the “number of lesions outside the treatment area” value in the assay with UVB-induced skin lesions (~10 cm2 area) was “not significantly affected”. In addition, in the assay with T7 tumours, the “protection against subsequent T7 challenge” value is reported as “no protective effect”. Besides, the “removal of tattoo markings” value in “Tattoo studies” is listed as “eradication of the tattoo markings”.
